The results in this text go back to patent EP1388013B1, “COMPOSITIONS AND METHODS FOR THE USE OF FIBRONECTIN FRAGMENTS IN THE DIAGNOSIS OF CANCER” (THE REGENTS OF THE UNIVERSITY OF MICHIGAN, priority 2001, dated 2002).

This experiment has as its system metastatic DU-145 prostate cancer cells. The experiment is described as follows: SU-ECM invasion assay, DU-145 cells. Format: cell-based, human. As to conditions: PHSRN sequence of fibronectin alone; Example 4. On the procedure:
Adult Strongylocentrotus purpuratus sea urchins were obtained from Pacific BioMarine, and their embryos were cultured to the early pluteus stage in artificial sea water at 15°C. SU-ECM were prepared from them by treatment with nonionic detergent and sterilized by dilution in the appropriate media.
[…] When appropriate, purified bovine plasma fibronectin (Sigma, St. Louis, Mo), purified 120 kDa chymotryptic fragment (Gibco BRL), PHSRN or PHSCN peptides (synthesized at the Biomedical Research Core Facilities of the University of Michigan), or GRGDSP or GRGESP peptides (Gibco BRL) were added to the resuspended cells prior to placement of the cells on SU-ECM. In each well of a plate used for an invasion assay, SU-ECM were placed in 0.5 ml of the appropriate medium, and 0.5ml of the resuspended cells dropped on their exterior surfaces. Invasion assays were incubated 1 to 16 hours prior to scoring. If some circumstances, invasion assays were fixed in phosphate-buffered saline (PBS) with 2% formaldehyde for 5 minutes at room temperature, then rinsed into PBS.
Invasion assays were coded and scored blindly by microscopic examination under phase contrast at 200- and 400-fold magnification. Each cell contacting an SU-ECM was scored for its position relative to the exterior or interior surfaces. A cell was judged to have invaded if it was located on an interior surface below the focal plane passing through the upper surface of the SU-ECM, but above the focal plane passing through its lower surface. The minimum viability of the cells in each assay was always ascertained at the time of assay by determining the fraction of spread, adherent cells on the bottom of each well scored.
An invasion frequency is defined as the fraction of cells in contact with basement membranes which were located in their interiors at the time of assay. Thus, an invasion frequency of 1 denotes invasion by 100% of the cells in contact with basement membranes. Invasion frequencies were determined multiple times for each cell type assayed. For each type of cell assayed the mean and standard deviation of the invasion frequencies were calculated.
The method of Example 4 is employed, with the addition of varying concentrations of the PHSCN peptide.
Thus, the procedure in Example 4 provides a method for determining the inhibitory potential of the PHSCN peptide by comparing the number of cell invasions in the presence of the PHSCN peptide, with the number of cell invasions in the absence of the PHSCN peptide.
In this example, in vitro invasion of cancer cells into substrates is inhibited with peptides that have been chemically modified with protecting groups and peptides having protecting groups as well as the modification wherein an L-amino acid has been replaced with the D-isomer. PHSCN peptide, blocked PHSCN peptide, and blocked PHSCN peptide with a D-cysteine instead of the L-isomer, were tested (Figure 4A, 4B).
In this example, in vitro invasion of cancer cells into substrates is inhibited with non-peptide mimetics in comparison with chemically modified peptides (on a molar basis). The peptides of Example 10 (i.e. peptides chemically modified with protecting groups and peptides having protecting groups as well as the modification wherein an L-amino acid has been replaced with the D-isomer) were compared with the non-peptide mimetics DL-N-Acetylhomocysteinethiolactone, Thiobutyrolactone, and Mercaptopropionic acid, in order to investigate the structure activity relationship for invasion inhibition by interaction with the PHSRN-binding pocket of the α5β1 fibronectin receptor (Figure 7)

No end group written: not given here.

Turning to PHSRN [PHSRN], the “induction of DU-145 cell invasion of SU-ECM” value is “induced to invade”.
